{"source": "paper PMC11912122", "about": "“Gut in Tube—Continuous Measurement of Metabolic Crosstalk between Cell Populations in Heterogeneous Samples by NMR Imaging” (Analytical Chemistry, 2025)", "system": "Cocultures of colonocytes (Caco-2, HT29, T84, SW620)", "test": "Cell viability assay (MTT)", "format": "cell-based, human", "conditions": "peptide 1.6 mg/mL, 37 °C, 3 h, OD590, % viability vs control, n=3", "procedure": "Individual cell lines (Caco-2, HT29, T84, and SW620) were grown from frozen stocks, prepared at ca. 1 million/mL. Cells were seeded in a T-75 tissue culture flask, passaged once, and matured to ca. 10 million/mL in a T-175 flask in complete media. Cells were rinsed twice with Ca^2+/Mg^2+-free PBS (25 mL, CAS D8537), trypsinized, the trypsin deactivated with P/S-free complete media, all four lineages mixed in a 1:1:1:1 ratio, pelleted (300 rcf, 5 min), and resuspended in alginate (sodium alginate, CAS 9005–38–3, 1% w/v in P/S-free complete media). The cell suspension was extruded through a 200 μL pipet tip dropwise into cold CaCl2 (0.3 M in phosphate-buffered saline, PBS, CAS D8662, 15 °C) under stirring (100 r.p.m.). The cell spheres (Figures S1 and S2, Supporting Information (SI)) were removed from the CaCl2 solution, washed, and stored in P/S-free complete media before further use.\nThe effect of the peptide on cell viability was measured using a cell proliferation kit (CAS 11465007001). 3-[4,5-Dimethylthiazole-2-yl]-2,5-diphenyltetrazolium bromide (MTT) was solubilized in PBS (5 mg/mL) and filter-sterilized (0.22-μm). Cocultures of colonocytes were grown in phenol red-free complete media in 24-well plates to ca. 50% confluency. […] The absorbance (OD590) in each well was read, and % viability was calculated against the control (Figure S6, SI).", "note": "Square brackets hold non-standard residues; d marks the D form. Peptide text beside a SMILES is read from it. Phe(4-F) = N[C@@H](Cc1ccc(F)cc1)C(=O)O"}
{"smiles": "C[C@H](NC(=O)[C@@H](N)Cc1ccc(F)cc1)C(=O)N[C@@H](Cc1c[nH]cn1)C(=O)N[C@@H](Cc1c[nH]c2ccccc12)C(N)=O", "note": "[p-F-Phe-Ala-His-Trp] (H-[Phe(4-F)]AHW-NH2)", "values": [{"measurement": "effect on colonocyte viability", "result": "no significant (p > 0.05) effect and ns"}]}
